The nature of assay [1]: Neuroprotective activity against cobalt chloride-induced neurotoxicity in rat differentiated PC12 cells. The following applies: pc-12. The class given is functional, cell-based.
Assay [2] can be described thus: Neuroprotective activity against cobalt chloride-induced neurotoxicity in rat NGF-differentiated PC12 cells assessed as increase of neurite-bearing cell level at 60 uM after 12 hrs.

`COc1cc(/C=C/C(=O)OCc2nc(C)c(C)nc2C)cc(OC)c1OC` had an EC50 in assay [1] of less than 24 µM.
As to `C=CCc1ccc(OCc2nc(C)c(C)nc2C)c(OC)c1`, the midpoint of the response in assay [1], the EC50, lay at 4.62 µM.
For the compound `COc1ccc(C(C)=O)c(OCc2nc(C)c(C)nc2C)c1`, the EC50 in assay [1] was less than 15 µM.
As to `COc1ccccc1/C=C/C(=O)OCc1nc(C)c(C)nc1C`, in assay [1], the EC50 was less than 24 µM.
For `COc1ccc(/C=C/C(=O)OCc2nc(C)c(C)nc2C)c(OC)c1OC`, in assay [1], a half-maximal effect (EC50) was put at 0.719 µM. For the same compound, the Activity in assay [2] came out at 50.8%.
`COc1ccc(OC)c(/C=C/C(=O)OCc2nc(C)c(C)nc2C)c1` returned an EC50 in assay [1] of less than 24 µM.
`Cc1nc(C)c(COC(=O)c2cc(OCc3nc(C)c(C)nc3C)c(OCc3nc(C)c(C)nc3C)c(OCc3nc(C)c(C)nc3C)c2)nc1C`: the EC50 in assay [1] was more than 100 µM.
`COc1ccc(/C=C/C(=O)OCc2nc(C)c(C)nc2C)cc1OC` yielded an EC50 in assay [1] of less than 24 µM.
In assay [1], `COc1ccc(/C=C/C(=O)OCc2nc(C)c(C)nc2C)cc1` had a 50% effective concentration (EC50) of less than 24 µM.
With `COc1cccc(/C=C/C(=O)OCc2nc(C)c(C)nc2C)c1OC`, in assay [1], the EC50 is less than 24 µM.
In the case of `COc1cccc(/C=C/C(=O)OCc2nc(C)c(C)nc2C)c1`, in assay [1], the 50% effective concentration (EC50) was less than 24 µM.
